Experimental findings from publication PMC7664879, “Discovery of 12O—A Novel Oral Multi-Kinase Inhibitor for the Treatment of Solid Tumor” (Molecules, 2020) are described below.

A word on the inhibition: it is the change of the read-out against control, counted positive when it falls. A word on the IC50: it is the concentration that gives 50% inhibition.

The target of data set [1] is T1, KDR (VEGFR2) (Homo sapiens, UniProt P35968).
T1 construct: purchased Eurofins (KinaseProfiler service)
In words: Kinase inhibition assay (Eurofins KinaseProfiler). The class given is biochemical. The conditions noted are these: ATP at Km. The procedure:
(§1) Kinase inhibition profiles were determined using KinaseProfiler services provided by Eurofins, and ATP concentrations used are the Km of corresponding kinases.
KDR (h) was incubated with 8 mM MOPS pH 7.0, 0.2 mM EDTA, 0.33 mg/mL myelin basic protein, 10 mM MgAcetate and [gamma-33P]-ATP.
(§2) All the reactions above were initiated by the addition of the Mg/ATP mix. After incubation for 40 min at room temperature, the reaction was stopped by the addition of phosphoric acid to a concentration of 0.5%. An amount of 10 µL of the reaction was then spotted onto a P30 filtermat and washed four times for 4 min in 0.425% phosphoric acid and once in methanol prior to drying and scintillation counting.

Data set [2] has as its target T2, c-Kit(h) (Homo sapiens, UniProt P10721).
T2 construct: purchased Eurofins (KinaseProfiler service)
In words: Kinase inhibition assay (Eurofins KinaseProfiler). In kind it is biochemical. Conditions: ATP at Km. As for the experimental part: as §1
c-Kit (h) was incubated with 8 mM MOPS pH 7.0, 0.2 mM EDTA, 10 mM MnCl2, 0.1 mg/mL poly(Glu, Tyr) 4:1, 10 mM MgAcetate and [gamma-33P]-ATP.
as §2

Data set [3] relates to SiHa. In words: CCK-8 cell growth inhibition, SiHa. In kind it is cell-based, human. The conditions noted are these: Homo sapiens, SiHa; CCK-8 assay, 72-h incubation; read-out: Cell Lines IC50 SiHa. As for the experimental part: (§3) In vitro anticancer screening of all newly synthesized compounds towards human solid tumor cells, cervical (SiHa) and ovarian (SKOV3) cancer cell lines, was carried out by standard CCK-8 assay with cisplatin as the positive control, as cisplatin is one of the most used chemotherapy drugs. […] The compound was further evaluated in a dose response study against a panel of solid tumor cells, including cervical cancer cell lines (SiHa and HeLa), ovarian cancer cell lines (SKOV3 and OVCAR-5), breast cancer cell lines (4T1 and MCF-7), lung cancer cell lines (A549 and H460) to test cytotoxic activity. The IC50 values were summarized in Table 2, including the cytotoxic activity of the cisplatin used as reference compound.
The viability of cells as determined using the CCK8 assay method. Cells were seeded (2000–3000 cells per well) in 96-well plates. After incubation for 24 h in serum-containing media, the cells were treated with drugs at different concentrations diluted with culture medium for 72 h at 37 °C with a 5% CO2 atmosphere. Then, 10 μL CCK8 regent (Promega, WI) was added to each well, and the plates were incubated for 1–4 h at 37 °C. Finally, absorbance values of test wells (AS), control wells (AC) and blank wells (Ab) at 450 nm were read using the Microplate Reader (Promega, WI). Inhibition ratios were calculated as follows: [(AC − AS)/ (AC−Ab)] × 100%. IC50 values were calculated using GraphPad software.
For orientation: Formazan colour is commonly taken as a measure of viable cells.

Data set [4] concerns the target T3, CDK7/cyclinH/MAT1(h) (Homo sapiens, UniProt P50613).
T3 construct: purchased Eurofins (KinaseProfiler service)
In words: Kinase inhibition assay (Eurofins KinaseProfiler). In kind it is biochemical. The conditions noted are these: ATP at Km. The procedure:
as §1
CDK7/cyclinH/MAT1 (h) was incubated with 8 mM MOPS pH 7.0, 0.2 mM EDTA, 500 uM peptide, 10 mM MgAcetate and [gamma-33P]-ATP (specific activity and concentration as required).
as §2

Data set [5] addresses T4, FGFR1(h) (Homo sapiens, UniProt P11362).
T4 construct: purchased Eurofins (KinaseProfiler service)
In words: Kinase inhibition assay (Eurofins KinaseProfiler). The class given is biochemical. The conditions noted are these: ATP at Km. The procedure:
as §1
FGFR1 (h) was incubated with 8 mM MOPS pH 7.0, 0.2 mM EDTA, 250 uM KKKSPGEYVNIEFG, 10 mM MgAcetate and [gamma-33P]-ATP.
as §2

The subject of data set [6] is SiHa xenograft. In words: SiHa xenograft mouse model, oral dosing. The class given is in vivo. Conditions: for Tumor growth inhibition (TGI): SiHa xenograft mice, every day. The procedure:
Based on a desirable set of in vitro properties, 12O was finally selected for further in vivo evaluation. We proceeded to test the antitumor efficacy of 12O in SiHa xenograft mice. Animals were orally given three doses (5, 10, and 20 mg Kg^−1) of 12O, one dose (20 mg Kg^−1) of cisplatin (positive control), or vehicle (control) every day. […] Of note, In Figure 5c, an obvious decrease in tumor size was also observed at the end of observation. The average tumor weight (Figure 5d) of the 12O-treated group was less than that of cisplatin. HE staining was further performed to identify the efficacy of 12O (Figure 5e). […] Additional kinase activities of 12O intimately associated with the growth, survival, and metastasis in tumor cells, may contribute to the antitumor activity, but may also cause side effects. Multi-target kinase inhibitor extensively used in clinic cancer therapy, while hampered by associated adverse reactions and side-effect. Thus, further evidence is needed. An in-depth study of compound 12O is ongoing in our laboratory and will be reported in due course.
All animal studies were conducted under the approval of the Experimental Animal Management Committee of Nankai University (No. NKUEC20190228). Six- to eight-week-old female BALB/c nude mice were purchased from Beijing HFK Bioscience Company. Mice were fed in an SPF-level laboratory animal room. The mice were kept in independent ventilation cages with autoclaved corncobs at the bottom of the cage as bedding. The dimensions of the cages were 390 × 180 × 180 mm. Environmental factors: Average air temperature ranged from 20 to 26 °C with average relative air humidity ranging from 40 to 70%. Noise was below 60 decibels. Ventilation times were more than 15 times/hour. Air velocity was 0.1~0.2m/s. The ammonia concentration was below 14/(mg/m³). Working illumination was 150~300LX and animal illumination was 15~20LX. The nutritional components of mouse food include: water content: ≤10%, crude protein: ≥18%, crude fat: ≥4%, crude fiber: ≥5%, minerals: ≥4%, calcium: 1.0–1.8%, Phosphorus: 0.6-1.2%. The water that mice drink is sterilized by the animal drinking system.
Cells SiHa were harvested during the exponential-growth phase, washed 3 times with serum-free medium, followed by resuspension at a concentration of 2 × 10^6 per mL. A total of 100 μL of cell suspension was injected into SCID mice subcutaneously. After the tumors had grown to 100−150 mm^3, all the mice were randomized into 5 groups (5 mice for each group, 25 mice total). The mice were treated daily via oral gavage administration with 12O (5, 10, or 20 mg kg^−1 d^−1), cisplatin (20 mg kg^−1 d^−1), or vehicle. […] Mice were monitored for side effects every day. Body weights and tumor sizes were determined every other day and volume was also observed. At the end-point of the study, all mice had survived. Mice were euthanized and the subcutaneous tumor tissues were stripped and collected. Tumor measurements were calculated using a digital vernier caliper, and the volumes were determined using the following calculation: (short^2) × long × 0.5. Inhibition rate of tumor growth was calculated using the following formula: 100 × {1 − [(tumor volume final-tumor volume initial) for 12O-treated group]/ [(tumor volume final-tumor volume initial) for the vehicle-treated group]} [23].

In data set [7] the test system is HeLa. In words: CCK-8 cell growth inhibition, HeLa. The class given is cell-based, human. Conditions: Homo sapiens, HeLa; cervical cancer; CCK-8 assay, 72-h incubation. The procedure: as §3
The viability of cells as determined using the CCK8 assay method. Cells were seeded (2000–3000 cells per well) in 96-well plates. After incubation for 24 h in serum-containing media, the cells were treated with drugs at different concentrations diluted with culture medium for 72 h at 37 °C with a 5% CO2 atmosphere. […] Finally, absorbance values of test wells (AS), control wells (AC) and blank wells (Ab) at 450 nm were read using the Microplate Reader (Promega, WI). Inhibition ratios were calculated as follows: [(AC − AS)/ (AC−Ab)] × 100%. IC50 values were calculated using GraphPad software.

T1 sequence (P35968 20-1356): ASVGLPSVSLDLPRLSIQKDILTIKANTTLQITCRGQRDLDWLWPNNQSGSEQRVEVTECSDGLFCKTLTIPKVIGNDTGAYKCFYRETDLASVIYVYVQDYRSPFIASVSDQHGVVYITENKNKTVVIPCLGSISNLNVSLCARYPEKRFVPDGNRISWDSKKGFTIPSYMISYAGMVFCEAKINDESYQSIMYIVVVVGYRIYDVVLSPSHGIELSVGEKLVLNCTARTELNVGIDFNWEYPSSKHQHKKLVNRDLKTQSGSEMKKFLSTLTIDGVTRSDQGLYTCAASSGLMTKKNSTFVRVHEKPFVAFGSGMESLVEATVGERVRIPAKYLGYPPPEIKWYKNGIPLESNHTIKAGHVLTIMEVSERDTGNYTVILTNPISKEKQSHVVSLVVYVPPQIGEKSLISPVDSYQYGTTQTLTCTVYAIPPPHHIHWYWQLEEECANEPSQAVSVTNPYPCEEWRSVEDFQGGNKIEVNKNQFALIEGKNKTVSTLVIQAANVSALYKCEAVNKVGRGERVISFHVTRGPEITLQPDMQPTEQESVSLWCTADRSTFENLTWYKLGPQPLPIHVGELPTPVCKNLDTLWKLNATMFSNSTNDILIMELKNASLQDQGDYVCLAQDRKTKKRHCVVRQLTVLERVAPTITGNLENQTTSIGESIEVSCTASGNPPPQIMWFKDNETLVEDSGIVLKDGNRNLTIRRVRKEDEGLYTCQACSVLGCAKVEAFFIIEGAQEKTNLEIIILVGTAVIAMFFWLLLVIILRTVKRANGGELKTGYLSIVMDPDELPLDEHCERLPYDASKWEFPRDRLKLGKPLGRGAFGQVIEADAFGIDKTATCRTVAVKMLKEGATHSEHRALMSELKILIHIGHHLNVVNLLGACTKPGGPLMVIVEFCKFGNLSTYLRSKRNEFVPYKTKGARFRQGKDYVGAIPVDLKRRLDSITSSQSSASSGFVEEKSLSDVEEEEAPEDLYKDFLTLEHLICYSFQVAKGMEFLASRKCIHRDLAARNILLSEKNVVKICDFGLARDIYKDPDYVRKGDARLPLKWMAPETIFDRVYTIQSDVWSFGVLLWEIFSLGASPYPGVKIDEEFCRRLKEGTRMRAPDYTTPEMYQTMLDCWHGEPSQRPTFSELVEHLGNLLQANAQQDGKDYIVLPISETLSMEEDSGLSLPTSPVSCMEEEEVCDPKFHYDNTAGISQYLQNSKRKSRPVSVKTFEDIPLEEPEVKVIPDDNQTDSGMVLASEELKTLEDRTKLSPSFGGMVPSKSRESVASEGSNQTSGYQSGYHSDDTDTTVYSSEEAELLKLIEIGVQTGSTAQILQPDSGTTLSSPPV
T3 sequence (P50613 whole entry): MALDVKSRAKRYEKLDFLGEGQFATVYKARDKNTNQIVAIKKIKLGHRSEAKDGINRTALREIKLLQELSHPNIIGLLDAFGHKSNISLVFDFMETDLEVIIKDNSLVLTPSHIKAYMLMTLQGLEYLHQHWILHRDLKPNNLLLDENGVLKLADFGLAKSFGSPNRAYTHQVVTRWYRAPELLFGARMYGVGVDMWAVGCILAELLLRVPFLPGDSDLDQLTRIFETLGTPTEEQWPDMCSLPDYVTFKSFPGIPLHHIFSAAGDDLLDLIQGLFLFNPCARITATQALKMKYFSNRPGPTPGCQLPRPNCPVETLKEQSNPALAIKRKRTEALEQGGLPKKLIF
T3 sequence (P51946 whole entry partner): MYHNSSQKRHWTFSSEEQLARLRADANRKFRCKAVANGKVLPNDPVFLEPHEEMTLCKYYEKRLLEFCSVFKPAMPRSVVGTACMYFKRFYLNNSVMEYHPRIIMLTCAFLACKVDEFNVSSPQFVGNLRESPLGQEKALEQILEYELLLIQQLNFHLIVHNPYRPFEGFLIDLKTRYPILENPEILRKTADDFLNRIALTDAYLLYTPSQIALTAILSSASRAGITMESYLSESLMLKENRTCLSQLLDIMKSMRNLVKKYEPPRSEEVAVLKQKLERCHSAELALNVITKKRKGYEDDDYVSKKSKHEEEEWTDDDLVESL
T3 sequence (P51948 whole entry partner): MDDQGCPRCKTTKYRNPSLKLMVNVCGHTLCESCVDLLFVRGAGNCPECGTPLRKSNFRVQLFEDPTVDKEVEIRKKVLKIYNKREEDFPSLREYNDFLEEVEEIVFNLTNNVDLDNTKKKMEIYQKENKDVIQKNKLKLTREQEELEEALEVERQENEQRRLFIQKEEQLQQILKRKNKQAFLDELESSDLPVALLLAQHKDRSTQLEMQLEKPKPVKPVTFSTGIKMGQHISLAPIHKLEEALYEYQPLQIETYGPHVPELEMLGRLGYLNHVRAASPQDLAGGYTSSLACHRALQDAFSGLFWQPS
T4 sequence (P11362 22-822): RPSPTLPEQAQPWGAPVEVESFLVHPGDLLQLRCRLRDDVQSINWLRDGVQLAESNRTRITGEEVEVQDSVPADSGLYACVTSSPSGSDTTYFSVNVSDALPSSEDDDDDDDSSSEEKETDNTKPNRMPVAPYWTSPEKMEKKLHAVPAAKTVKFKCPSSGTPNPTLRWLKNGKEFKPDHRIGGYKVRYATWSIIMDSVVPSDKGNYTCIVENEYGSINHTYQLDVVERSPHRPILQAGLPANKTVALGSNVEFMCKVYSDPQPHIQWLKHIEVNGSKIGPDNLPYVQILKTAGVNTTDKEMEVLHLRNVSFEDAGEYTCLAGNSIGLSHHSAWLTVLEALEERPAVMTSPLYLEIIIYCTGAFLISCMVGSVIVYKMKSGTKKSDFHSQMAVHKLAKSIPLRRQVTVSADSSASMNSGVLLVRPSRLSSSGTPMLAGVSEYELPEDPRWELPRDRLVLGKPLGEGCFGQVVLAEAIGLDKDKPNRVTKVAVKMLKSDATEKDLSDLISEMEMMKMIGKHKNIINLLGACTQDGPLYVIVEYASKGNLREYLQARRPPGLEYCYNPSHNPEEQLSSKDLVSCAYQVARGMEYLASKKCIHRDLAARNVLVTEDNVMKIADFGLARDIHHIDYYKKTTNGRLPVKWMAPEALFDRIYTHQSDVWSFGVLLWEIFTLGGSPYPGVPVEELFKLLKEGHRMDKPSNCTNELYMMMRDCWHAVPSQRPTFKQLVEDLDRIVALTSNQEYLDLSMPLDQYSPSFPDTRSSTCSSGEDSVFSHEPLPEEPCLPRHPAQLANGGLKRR
T2 sequence (P10721 26-976): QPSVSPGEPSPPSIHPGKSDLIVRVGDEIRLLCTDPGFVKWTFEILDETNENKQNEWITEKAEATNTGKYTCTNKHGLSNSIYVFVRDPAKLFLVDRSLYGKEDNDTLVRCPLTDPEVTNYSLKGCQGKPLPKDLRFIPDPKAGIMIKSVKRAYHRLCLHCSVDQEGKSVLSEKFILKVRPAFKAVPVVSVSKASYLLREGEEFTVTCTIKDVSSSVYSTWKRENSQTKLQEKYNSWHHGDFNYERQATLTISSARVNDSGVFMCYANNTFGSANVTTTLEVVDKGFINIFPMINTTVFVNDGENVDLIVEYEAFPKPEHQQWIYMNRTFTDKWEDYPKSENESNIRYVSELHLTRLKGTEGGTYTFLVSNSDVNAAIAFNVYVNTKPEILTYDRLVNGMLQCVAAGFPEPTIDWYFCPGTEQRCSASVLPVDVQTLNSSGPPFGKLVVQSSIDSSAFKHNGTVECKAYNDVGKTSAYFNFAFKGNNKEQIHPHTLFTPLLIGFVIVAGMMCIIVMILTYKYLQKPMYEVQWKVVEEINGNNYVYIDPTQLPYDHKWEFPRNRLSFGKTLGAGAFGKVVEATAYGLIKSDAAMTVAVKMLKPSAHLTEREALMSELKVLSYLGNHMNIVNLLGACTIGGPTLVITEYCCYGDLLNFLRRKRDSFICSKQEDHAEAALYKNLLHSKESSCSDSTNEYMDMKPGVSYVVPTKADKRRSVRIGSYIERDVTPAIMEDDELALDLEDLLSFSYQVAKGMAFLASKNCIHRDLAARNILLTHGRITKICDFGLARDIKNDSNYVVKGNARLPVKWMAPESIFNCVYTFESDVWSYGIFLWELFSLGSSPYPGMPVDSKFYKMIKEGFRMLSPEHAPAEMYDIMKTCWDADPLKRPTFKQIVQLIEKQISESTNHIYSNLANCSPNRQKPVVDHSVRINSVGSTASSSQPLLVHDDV

As to `CC(C)n1nnc2ccc(-c3nc(Nc4ccc(CNC(=O)C5(C(=O)Nc6ccccc6)CC5)cc4)ncc3F)cc21` [12O], the inhibition at 1 µM in data set [1] was 81%; in data set [2] it was 15%; in data set [4] it was 53%; in data set [5], -23%. Moreover, the IC50 in data set [3] turned out to be 9 nM; in data set [7], 24 nM. The entries for the “Tumor growth inhibition (TGI)” value in data set [6] (5 mg/kg oral), in data set [6] (10 mg/kg oral) and in data set [6] (20 mg/kg oral) were 51.25%, 65.52% and 79.29%, respectively. Also, in data set [6] (SiHa xenograft mice, 5, 10 and 20 mg/kg oral daily), the “toxicity in treated mice (body weight)” value is given as “without obvious toxicity”.
